From patent publication US7700122B1, “Topical compositions comprising an opioid analgesic and an NMDA antagonist” (Memorial Sloan-Kettering Cancer Center, priority 1998, dated 2010)
Entries after “also recorded” stand apart in the source; their conditions may differ. Where a name gives a salt, the structure may show the parent alone.

Columns and labels:
CD-1 mice [1] = test: Effects of opioid antagonists on topical mu analgesia (tailflick); format: in vivo; conditions: for effect of naloxone on topical opioid analgesic responses: naloxone 1 mg/kg s.c. 20 min prior, M6G 20 mM topical 1 min; for effect of 3-methoxynaltrexone on topical M6G response: 0.25 mg/kg s.c. 20 min prior, M6G 20 mM
Procedure: (§1) Systemic drugs were given subcutaneously (s.c.) in the midscapular region of the back. Intracerebroventricularly (i.c.v.) and intrathecal injections were performed under light halothane anesthesia 30 and 15 min before testing, respectively, as previously reported (Kolesnikov et al, 1996). The i.c.v. injections were administered-2 mm caudal and 2 mm lateral to the bregma at a depth of 3 mm, whereas intrathecal injections were made by lumbar puncture. Drugs were given topically on the tail by immersion of the tail in dimethylsulfoxide (DMSO) solutions containing the indicated drugs. The distal portion of the tail (3 cm) was immersed in DMSO solution for 1 min. Tailflick latencies then were determined on the region of the tail immersed in the drug, unless otherwise stated. To ensure a local effect, testing was also done with a more proximal segment of tail not exposed to the drug solution.
(§2) Analgesia was assessed with the tail-flick assay, as previously reported (Kolesnikov et al., 1996). The tail was exposed to a focused beam of light and the latency of exposure determined. […] A maximum cutoff latency of 10 sec was used to minimize tissue damage in analgesic animals. Testing was performed 30 min after systemic administration, 15 min after either i.c.v or i.t. injections or immediately after termination of topical administration into the tail. Antinociception, or analgesia, was defined quantally as a tailflick latency for an individual mouse which was at least twice its baseline latency. Group comparisons were performed using the Fisher exact test. ED50 values were determined using the Bliss program, as previously reported (Pick et al., 1993). To ensure a local action, in all studies we examined a region of the tail which was immersed in DMSO as well as a more proximal segment which was not exposed.

[2] = for Radioactivity, Tail Unexposed: unexposed tail less than 1 cm from exposed region
CD-1 mice [3] = test: Effect of NMDA antagonists (MK801, ketamine) on topical morphine tolerance (tailflick); format: in vivo
Procedure: as §1, §2

CD-1 mice [4] = conditions: subcutaneous injection in the tail, doses of 10 or 30 μg
CD-1 mice [5] = test: Tailflick assay, topical opioid analgesia (tail immersion in DMSO solution); format: in vivo; conditions: for analgesic response in proximal tail not exposed to the opioid solution: mouse, in vivo; for Relative potency: ratio of topical ED50 against morphine; for ED50 (95% CL): topical for 1 min, tailflick assay, CD-1 mice; for analgesic response: morphine solution 7.5 mM
[6] = central actions; cited from earlier work
CD-1 mice [7] = test: Tolerance to systemic and topical morphine and cross tolerance (tailflick); format: in vivo; conditions: for response to topical opioid after chronic systemic morphine (cross tolerance): morphine 5 mg/kg s.c. daily five days, tested day six, 1 min local exposure (morphine 15 mM, M6G 20 mM, DAMGO 2 mM)
Procedure: as §1, §2

CD-1 mice [8] = test: Interactions between topical and systemic or spinal morphine (tailflick); format: in vivo; conditions: for ED50: Mus musculus, topical, 0.5 h
Procedure: Testing was performed 10 min following drug administration. […] Testing was performed 30 min following drug administration.
as §1, §2

[9] = tail immersed 3 min in 100 μCi/ml in DMSO, sampled within 5 min
[10] = morphine 15 mM daily, after three days

C=CCN1CC[C@]23c4c5ccc(O)c4O[C@H]2C(=O)CC[C@@]3(O)[C@H]1C5 [naloxone]
effect of naloxone on topical opioid analgesic responses (CD-1 mice [1]; morphine 15 mM, DAMGO 2 mM): easily reversed; also recorded: readily reversed
effect of naloxone on topical opioid analgesic responses (CD-1 mice [1]; morphine 15 mM, DAMGO 2 mM, listed as Naloxone): significantly reduced the responses for all agonists

[^125I]DAMGO [^125I-DAMGO]
Radioactivity, Blood [2, 9]: <50 cpm/g
Radioactivity, Brain [2, 9]: <50 cpm/g
Radioactivity, Spinal cord [2, 9]: <50 cpm/g
Radioactivity, Tail Exposed [2, 9]: 45,280 ± 2,637 cpm/g
Radioactivity, Tail Unexposed [2]: 157 ± 51 cpm/g

CNC1(c2ccccc2Cl)CCCCC1=O (stereo not shown) [ketamine, 2-(2-chlorophenyl)-2-(methylamino) cyclohexanone]
topical morphine tolerance with intrathecal ketamine (CD-1 mice [3]; data not shown): ineffective
topical morphine tolerance with systemic ketamine (CD-1 mice [3]; data not shown): prevented the development of tolerance to topical morphine
reversal of established topical morphine tolerance by topical ketamine 36 mM (CD-1 mice [3]; ketamine from day 3 through day 6): completely restored morphine analgesia
topical morphine tolerance with topical ketamine 3.6 mM (CD-1 mice [3]; morphine 15 mM once daily): significantly lessened the loss of morphine analgesic response after three days; also recorded: delayed the appearance of tolerance
topical morphine tolerance with topical ketamine 36 mM (CD-1 mice [3]; morphine 15 mM once daily): prevented tolerance up to six days; also recorded: effectively blocked tolerance
analgesia of ketamine alone (CD-1 mice [3]; topical 36 mM): did not produce significant analgesia; also recorded: no appreciable effect

COc1ccc2c3c1O[C@H]1C(=O)CC[C@@]4(O)[C@@H](C2)N(CC2CC2)CC[C@]314 [3-MeONtx, 3-methoxynaltrexone]
effect of 3-methoxynaltrexone on topical M6G response (CD-1 mice [1]): significantly lowered the response only for M6G
effect of 3-methoxynaltrexone on topical M6G response (CD-1 mice [1]; listed as 3MeONtx): significantly lowered the M6G response
effect of 3-methoxynaltrexone on topical morphine or DAMGO analgesia (CD-1 mice [1]; 0.25 mg/kg s.c., morphine 15 mM, DAMGO 2 mM): inactive

CN1CC[C@]23c4c5ccc(O)c4O[C@H]2[C@@H](O[C@@H]2O[C@H](C(=O)O)[C@@H](O)[C@H](O)[C@H]2O)C=C[C@H]3[C@H]1C5 [M6G, morphine-6β-glucuronide]
ceiling effect of analgesia (CD-1 mice [4]): 30%
analgesic response in proximal tail not exposed to the opioid solution (CD-1 mice [5]): did not display analgesia
Relative potency (CD-1 mice [5]): 0.9
ED50 (95% CL) (CD-1 mice [5]): 9.3 mM (7-14)
topical analgesic response (CD-1 mice [5]; topical paradigm, tailflick): full analgesic response
central activity relative to morphine [6]: approximately 100 fold
response to topical opioid after chronic systemic morphine (cross tolerance) (CD-1 mice [7]): no change

CN1CC[C@]23c4c5ccc(O)c4O[C@H]2[C@@H](O)C=C[C@H]3[C@H]1C5 [Morphine]
response to spinal morphine alone (CD-1 mice [8]; 100 ng, i.t.): no observable action
response to systemic morphine alone (CD-1 mice [8]; 1 mg/kg, s.c.): 10%
potentiation of analgesic potency of systemic morphine by topical morphine (CD-1 mice [8]; 30 min): ~7 fold
ED50 (CD-1 mice [8]; read-out: ED50 value, Systemic + topical): 0.66 mg/kg
ED50 (CD-1 mice [8]; read-out: ED50 value, Systemic alone): 4.3 mg/kg
ED50 value, Spinal alone (CD-1 mice [8]; intrathecal morphine alone, tested 15 min): 550 ng (386-822)
ED50 value, Spinal + topical (CD-1 mice [8]; intrathecal morphine with fixed topical morphine 15 mM, tested 15 min): 46 ng (21-84)
enhancement of potency of intrathecal morphine by topical morphine (CD-1 mice [8]; mouse, in vivo): ~12 fold
response of topical plus spinal morphine versus sum of routes (CD-1 mice [8]; topical 15 mM 2 min + 100 ng i.t., 10 min): significantly more active than the sum of the two individual routes alone
response of topical plus systemic morphine versus sum of routes (CD-1 mice [8]; topical 15 mM + 1 mg/kg s.c., 30 min): significantly greater than the sum of the two ones alone
response to topical morphine alone at 1 min (CD-1 mice [8]; topical morphine 15 mM, 2 min exposure, 1 min after): 80%
response to topical morphine alone at 10 min (CD-1 mice [8]; topical morphine 15 mM, 10 min after): 30%
response to topical morphine alone at 30 min (CD-1 mice [8]; topical morphine 15 mM, 30 min after): no observable response; also recorded: No analgesia
analgesic response (CD-1 mice [5]; exposure 30 seconds): 25%
analgesic response (CD-1 mice [5]; exposure 2 min): 80%
analgesic response (CD-1 mice [5]; exposure one minute): 50%
analgesic response in proximal tail not exposed to the opioid solution (CD-1 mice [5]): no analgesic response
duration of the response (CD-1 mice [5]; topical, FIG. 1a): less than 30 min
onset of analgesia after removal of the tail from the opioid solution (CD-1 mice [5]; topical, shortest time tested): detectable within one minute
day 3 response, systemic versus topical group (CD-1 mice [7]; 5 mg/kg s.c. or topical 15 mM 1 min daily): significantly greater than the topical group
ED50 (CD-1 mice [7]; Mus musculus, topical, read-out: ED50 (95% confidence limits), Systemic, Naive): 4.3 mg/kg
ED50 (95% confidence limits), Topical, Tolerant (CD-1 mice [7]; after topical morphine 15 mM daily for two days): 78 mM (49, 123)
response to topical opioid after chronic systemic morphine (cross tolerance) (CD-1 mice [7]): significantly decreased
ED50 (95% confidence limits), Topical, Naive (CD-1 mice [7]; naive mice, topical morphine): 8.3 mM (4.1-10.2)
response to daily topical morphine alone after three days (CD-1 mice [7]; topical 15 mM, 1 min, daily): lost and profound tolerance by the third day and complete loss analgesia by the third day

C[C@@H](NC(=O)[C@@H](N)Cc1ccc(O)cc1)C(=O)NCC(=O)N(C)[C@@H](Cc1ccccc1)C(=O)NCCO [DAMGO, [D-Ala^2,MePhe^4,Gly(ol)^5]enkephalin]
analgesic response in proximal tail not exposed to the opioid solution (CD-1 mice [5]): no analgesic response
Relative potency (CD-1 mice [5]): 5
ED50 (95% CL) (CD-1 mice [5]): 1.6 mM (1-2.5)
duration of action (CD-1 mice [5]; topical, FIG. 1a): lasting almost an hour
potency relative to morphine (CD-1 mice [5]; topical, fixed exposure time): over 5 fold
response to topical opioid after chronic systemic morphine (cross tolerance) (CD-1 mice [7]): significantly decreased

[^125I]Morphine [^125I-Morphine]
Radioactivity, Blood [2, 9]: 69 ± 18 cpm/g
Radioactivity, Spinal cord [2, 9]: 71 ± 12 cpm/g
Radioactivity, Tail Exposed [2, 9]: 38,460 ± 3,455 cpm/g
Radioactivity, Tail Unexposed [2]: 234 ± 51 cpm/g

C[C@]12N[C@H](Cc3ccccc31)c1ccccc12 [MK801, (5R,10S)— (+)-5-methyl-10,11-dihydro-5H-dibenzo[a,d]cyclohapten-5,10-immine hydrogen maleate]
topical morphine response with intrathecal MK801 (CD-1 mice [3]; MK801 1 μg i.t., morphine 15 mM daily): lost and ineffective
topical morphine response with systemic MK801 (tolerance prevention) (CD-1 mice [3]; MK801 0.1 mg/kg s.c., morphine 15 mM daily): remained essentially unchanged for five days
reversal of established topical morphine tolerance by topical MK801 (CD-1 mice [3]; MK801 0.3 or 3 mM from fourth day): reversed the previously established tolerance
topical morphine response with topical MK801 3 mM (tolerance prevention) (CD-1 mice [3]; morphine 15 mM 1 min daily): remained essentially unchanged for five days; also recorded: prevented the loss of responsiveness
topical morphine response with topical MK801 0.15 mM (CD-1 mice [3]; [10]): intermediate response
topical morphine response with topical MK801 0.3 mM (CD-1 mice [3]; [10]): prevented the loss of responsiveness; also recorded: effectively blocking tolerance
